# “Also recorded” adds a separate entry of the source.
# Columns and labels:
# [1] = set-up: method as in earlier work; details: ref (2) of the supplement; read-out: DPPH scavenging EC50 (literature value); cited from earlier work
# [2] = system: human fibroblasts; details: ref [15],[16],[17]; cited from earlier work
# [3] = Cellular metabolic activity, resazurin reduction assay, HaCaT; assay type: cell-based, human; details: human, HaCaT keratinocytes; HaCaT, resazurin, 24 h, concentrations greater than or equal to 500 µM; read-out: cell viability
# Experimental: (§1) The human keratinocytes (HaCaT, CLS 300493, Eppelheim, Germany) cell line was cultured with Dulbecco’s Modified Eagle’s Medium (DMEM) (Sigma-Aldrich, St. Louis, MO, USA), supplemented with 10% (v/v) of heat-inactivated fetal bovine serum (FBS), 1% (v/v) antibiotic solution (from a 10,000 U/mL penicillin and 10,000 μg/mL streptomycin stock) (Gibco, Carlsbad, CA, USA), 3.7 g/L sodium bicarbonate, and 1 mM sodium pyruvate (Sigma-Aldrich, St. Louis, MO, USA). The cell culture of keratinocytes was detached with EDTA solution 1X (Sigma-Aldrich, St. Louis, MO, USA) when the cells reached 70–80% confluence in cell culture flasks. The mouse macrophage cell line (RAW 264.7, ATCC TIB-71, Manassas, VA, USA) was cultured in DMEM supplemented with 10% (v/v) non-inactivated FBS, 1% (v/v) antibiotic solution, 1.5 g/L sodium bicarbonate, and 1 mM sodium pyruvate. Macrophages were mechanically detached with a cell scraper and subcultured in (1:10) proportion of cellular suspension to a final volume of DMEM. […] The metabolic activity of human epidermal keratinocytes (HaCaT), murine macrophages (RAW264.7), and human monocytes (THP-1) was assessed using a resazurin reduction assay. […] The absorbance was read at 570 and 620 nm using a SpectraMax Plus 384 absorbance microplate spectrophotometer (Molecular Devices, San Jose, CA, USA). […]
# [4] = system: B16 cells; details: 4 mM, compared to 3-O-ethyl ascorbic acid, ref [15],[16],[17]; cited from earlier work
# [5] = system: HaCaT cells; experiment: Cellular metabolic activity, resazurin reduction assay, HaCaT; assay type: cell-based, human; details: HaCaT keratinocytes, concentrations examined (abstract: up to 500 µM)
# Experimental: as §1
# [6] = system: RAW264.7 cells; experiment: Cellular metabolic activity, resazurin reduction assay, RAW264.7; assay type: cell-based, mouse; details: RAW264.7 macrophages, concentrations examined (abstract: up to 500 µM)
# Experimental: as §1
# [7] = system: THP-1 cells; experiment: Cellular metabolic activity, resazurin reduction assay, THP-1; assay type: cell-based, human; details: THP-1 monocytes, concentrations examined (abstract: up to 500 µM)
# Experimental: as §1
compound,measurement,setting,value
"O=C1O[C@H]([C@@H](O)CO)C(O)=C1O [AA, Ascorbic acid]",EC50,[1],16.3 ± 0.569 µM
"O=C1O[C@H]([C@@H](O)CO)C(O)=C1O[C@H]1O[C@H](CO)[C@@H](O)[C@H](O)[C@H]1O [AAG, 2-O-α-D-glucopyranosyl-L-ascorbic acid]",collagen production,[2],> 12 µg/well
same,viability at 24 h,[3],> 70%
same,lightening effect,[4],better lightening effect
"O=C1OC(C(COS(=O)(=O)O)OS(=O)(=O)O)C(OS(=O)(=O)O)=C1OC1OC(COS(=O)(=O)O)C(OS(=O)(=O)O)C(OS(=O)(=O)O)C1OS(=O)(=O)O [AAGS, 2-O-α-D-glucopyranosyl-L-ascorbic acid persulfate]",effect on cell viability / metabolic activity,[5],did not adversely impact cell viability; also recorded: did not affect the metabolic activity
same,effect on cell viability / metabolic activity,[6],did not adversely impact cell viability; also recorded: did not affect the metabolic activity
same,effect on cell viability / metabolic activity,[7],did not adversely impact cell viability; also recorded: did not affect the metabolic activity
